# Values of other authors in US20240139257A1, “METHODS AND COMPOSITIONS FOR ALOPECIA TREATMENT USING FIBROBLASTS AND FIBROBLAST-DERIVED PRODUCTS” (FIGENE, LLC, priority 2021, published 2024).
# What was measured:
# [1] = tested on: interferon (IFN)-gamma mRNA; details: scalp biopsies, AA patients, after successful DCP treatment; still above the constitutive level found in controls
# IL-2 mRNA = details: scalp biopsies, AA patients, after successful DCP treatment
# IL-8 mRNA = details: scalp biopsies, AA patients, after successful DCP treatment
# IL-10 mRNA = details: scalp biopsies, AA patients, after successful DCP treatment
# [2] = tested on: tumor necrosis factor-alpha mRNA; details: scalp biopsies, AA patients, after successful DCP treatment
structure (smiles),measurement,setting,value
"O=c1c(-c2ccccc2)c1-c1ccccc1 [DCP, diphenylcyclopropenone]",IFN-gamma expression after DCP treatment,[1],reduced
same,mRNA expression of IL-2 after DCP treatment,IL-2 mRNA,increased
same,mRNA expression of IL-8 after DCP treatment,IL-8 mRNA,increased
same,mRNA expression of IL-10 after DCP treatment,IL-10 mRNA,increased
same,mRNA expression of tumor necrosis factor-alpha after DCP treatment,[2],increased
same,Therapeutic benefit of topical immunotherapy in AA patients,alopecia areata (AA),some therapeutic benefits
